Source: article PMC8068801, “Novel Benzenesulfonate Scaffolds with a High Anticancer Activity and G2/M Cell Cycle Arrest” (Cancers, 2021)

How the values were obtained:
Type in all cases: cell-based, human
U-251 cells [1] = assay: Cell cycle assay (Muse Cell-Cycle Kit), U-251; conditions: 24 h
Procedure: The K562, U-251 and NHDF cells were seeded in 3 cm Petri dishes (Nunc) at a density of 250,000 cells per well and incubated under standard conditions at 37 °C for 24 h. […] After a 24 h treatment, the assays were performed using a Muse Cell-Cycle Kit (Millipore, Burlington, MA, USA) according to the supplier’s instructions. Briefly, the cells were collected, washed with cold PBS and centrifuged at 300 g for 5 min. Afterwards, the cells were fixed in ice cold 70% ethanol and stored at −20 °C overnight. The next day, the cells were washed with cold PBS, centrifuged and resuspended in 200 μL of the Muse™ Cell Cycle Reagent. The samples were incubated for 30 min at room temperature in the dark. After staining, the cellular subpopulation values in the individual cell cycle phases were estimated using a cell cycle analysis using a Muse Cell Analyzer (Millipore). The experiments were performed at least four times.

K562 cells [2] = assay: Annexin V binding (apoptosis) assay, K562; conditions: K562, 5 µM, 48 h; 5.56% in the control cells
Procedure: The K562, U-251 and NHDF cells were seeded in 3 cm Petri dishes (Nunc) at a density of 250,000 cells per well and incubated at 37 °C for 24 h. Then, the medium was removed, and freshly prepared solutions of the tested compounds, BS1 and BS4 (two to three times the IC50 value), were added. After a 48 h incubation, the assays were performed using a FITC Annexin V Apoptosis Detection KIT with 7-AAD (Bio-Legend) according to the manufacturer’s instructions. Briefly, the cells were collected, washed twice with cold PBS and centrifuged at 300 g for 5 min. Next, the cells were resuspended in a 100 µL Annexin V Binding Buffer and incubated for 15 min at room temperature in the dark with 5 µL of FITC Annexin V and 5 µL 7-AAD Viability Staining Solution. After immunostaining, the number of events for live, early and late apoptotic cells were determined using a Muse Cell Analyzer. The experiments were performed at least four times.

K562 cells [3] = assay: qRT-PCR mRNA expression, K562; conditions: 24 h
Procedure: (§1) The total RNA was isolated from the K562 and U-251 cells using the TRIzol Reagent procedure (Ambion, Austin, TX, USA). Reverse transcription was performed with 5 μg of total RNA using a GoScript™ Reverse Transcriptase kit (Promega) and Oligo(dT)23 Primers (Sigma). Real-time PCR was performed using a CTX96 Touch™ Real-Time PCR Detection System (Biorad, Hercules, CA, USA) in a 20 μL reaction volume. The reaction consisted of SsoAdvanced™ Universal SYBR® Green Supermix (Biorad), a specific primer pair mix (0.5 μM each) and 1 μL of cDNA. The reaction was performed under the following conditions: initial denaturation at 95 °C for 30 s; followed by 40 denaturation cycles at 95 °C, 15 s; annealing (primer-specific temperature for 30 s) and extension at 72 °C for 60 s. The obtained results were analyzed based on a comparison of the expression of the target genes to the reference gene, GAPDH, using the 2^−ΔΔCT method. The experiments were performed at least four times.

U-251 cells [4] = assay: qRT-PCR mRNA expression, U-251; conditions: for Increase in the GADD45α mRNA expression / p62 mRNA expression: 24 h; for LC3 mRNA expression: U-251, 24 h
Procedure: as §1

U-251 cells [5] = assay: Immunoblotting with densitometry, U-251; conditions: for Cleavage product of caspase-9 (Western blot) / PARP/Reference 89 kDa, densitometric intensity ratio / caspase-9/Reference 37-35 kDa, densitometric intensity ratio / BID/Reference 22 kDa, densitometric intensity ratio / Cathepsin b/Reference 44 kDa, densitometric intensity ratio / HIF-1α/Reference 120 kDa, densitometric intensity ratio / PARP/Reference 116 kDa, densitometric intensity ratio / caspase-9/Reference 47 kDa, densitometric intensity ratio / cdc2/Reference 34 kDa, densitometric intensity ratio / cyclin E1/Reference 48 kDa, densitometric intensity ratio / p21/Reference 21 kDa, densitometric intensity ratio / p53/Reference 53 kDa, densitometric intensity ratio / Cathepsin b/Reference 27 kDa, densitometric intensity ratio / Cathepsin b/Reference 22 kDa, densitometric intensity ratio: 24 h; for PARP/Reference 89 kDa, densitometric intensity ratio / caspase-9/Reference 37-35 kDa, densitometric intensity ratio: control 0.330; for BID/Reference 22 kDa, densitometric intensity ratio / Cathepsin b/Reference 44 kDa, densitometric intensity ratio / HIF-1α/Reference 120 kDa, densitometric intensity ratio / PARP/Reference 116 kDa, densitometric intensity ratio / caspase-9/Reference 47 kDa, densitometric intensity ratio / cdc2/Reference 34 kDa, densitometric intensity ratio / cyclin E1/Reference 48 kDa, densitometric intensity ratio / p21/Reference 21 kDa, densitometric intensity ratio / p53/Reference 53 kDa, densitometric intensity ratio: control 1.000; for Cathepsin b/Reference 27 kDa, densitometric intensity ratio: control 2.837; for Cathepsin b/Reference 22 kDa, densitometric intensity ratio: control […]
Procedure: The K562 and U-251 cells were seeded in 3 cm Petri dishes (Nunc) at a density of 500,000 cells per well and incubated overnight. […] Next, the cell pellets were resuspended in an RIPA buffer containing a Halt Protease Inhibitor Cocktail and a Halt Phosphatase Inhibitor Cocktail along with 0.5 M EDTA (all from Thermo Scientific, Waltham, MA, USA) and lysed on ice for 20 min. Then, the obtained lysates were sonicated and centrifuged at 10,000 rpm for 10 min at 4 °C. The supernatants were collected for further analysis. The protein concentration was measured using a Micro BCA™ Protein Assay Kit (Thermo Scientific) according to the manufacturer’s instructions. Equal amounts of the proteins (16 μg) were electrophoresed on SDS-Page gels and transferred onto nitrocellulose membranes. The membranes were blocked in 5% non-fat milk prepared in TPBS (PBS containing 0.1% Tween-20) for 1 h. After blocking, the membranes were incubated with the specific primary antibodies (all from Cell Signaling) at a 1:1000 dilution—cyclin E, cdc2, PARP, AIF, BID, p53, p21^Waf1/Cip1, HIF-1α, cathepsin B and caspase-9—and at a 1:2000 dilution for the reference proteins—vinculin, β-actin and GAPDH—overnight at 4 °C. The next day, the membranes were washed in TPBS and incubated with horseradish peroxidase (HRP)-conjugated secondary antibodies for 1 h at room temperature. Lastly, the membranes were washed in TPBS and incubated with a SuperSignal™ West Pico Chemiluminescent Substrate (Thermo Scientific). The chemiluminescence signals were captured using a ChemiDoc™ XRS + System (Biorad). The experiments were performed at least four to five times. The densitometric analysis was conducted using ImageJ software (Wayne Rasband, National Institutes of Health, Bethesda, MD, USA).
The band intensity of tested proteins (p53, cyclin E1, cdc2, p21, HIF-1α, cathepsin b, PARP, caspase-9, BID, AIF) were analyzed by densitometry readings/intensity ratio, using ImageJ software (NIH) and were normalized to the corresponding reference proteins (GAPDH, vinculin or β-actin) value.
The densitometric readings/intensity ratio data from four/five independent experiments (compared to control): […]
p53/ Refer- p21/ Refer- cdc2/ Refer- Cyclin E1/ HIF-1α/ Cathepsin b/Reference ence ence ence Reference Reference
PARP/Reference BID/ Reference Caspase-9/Reference […]

| Compound | Total (early and late) apoptotic cells (K562 cells [2]) | Increase in the GADD45α mRNA expression (U-251 cells [4]; U-251, 4 µM) | LC3 mRNA expression (U-251 cells [4]) | PARP/Reference 89 kDa, densitometric intensity ratio (U-251 cells [5]; U-251, 4µM) | caspase-9/Reference 37-35 kDa, densitometric intensity ratio (U-251 cells [5]; U-251, 4µM) | BID/Reference 22 kDa, densitometric intensity ratio (U-251 cells [5]; U-251, 4µM) | Cathepsin b/Reference 44 kDa, densitometric intensity ratio (U-251 cells [5]; U-251, 4µM) | HIF-1α/Reference 120 kDa, densitometric intensity ratio (U-251 cells [5]; U-251, 4µM) | PARP/Reference 116 kDa, densitometric intensity ratio (U-251 cells [5]; U-251, 4µM) | caspase-9/Reference 47 kDa, densitometric intensity ratio (U-251 cells [5]; U-251, 4µM) | cdc2/Reference 34 kDa, densitometric intensity ratio (U-251 cells [5]; U-251, 4µM) | cyclin E1/Reference 48 kDa, densitometric intensity ratio (U-251 cells [5]; U-251, 4µM) | p21/Reference 21 kDa, densitometric intensity ratio (U-251 cells [5]; U-251, 4µM) | p53/Reference 53 kDa, densitometric intensity ratio (U-251 cells [5]; U-251, 4µM) | Cathepsin b/Reference 27 kDa, densitometric intensity ratio (U-251 cells [5]; U-251, 4µM) | Cathepsin b/Reference 22 kDa, densitometric intensity ratio (U-251 cells [5]; U-251, 4µM) | HIF-1α protein expression (Western blot) (U-251 cells [5]; U-251, 24 h) | p53 protein levels (Western blot) (U-251 cells [5]; U-251, 24 h) | other results |
| --- | --- | --- | --- | --- | --- | --- | --- | --- | --- | --- | --- | --- | --- | --- | --- | --- | --- | --- | --- |
| COc1ccccc1/C=C/c1nc(OS(=O)(=O)c2ccc3c(c2)OCO3)c2ccccc2n1 [BS1, 2-((E)-2-(2-methoxyphenyl)ethenyl)quinazolin-4-yl 1,3-benzodioxole-5-sulfonate] | 31.99% | ~1.5 fold | more than two-fold increase | 1.044 | 1.485 | 0.675 | 2.467 | 0.550 | 0.871 | 1.167 | 1.986 | 0.576 | 1.932 | 1.357 | 2.726 | 2.940 | significant decrease | slight increase | Cells in G2/M phase, mean ± SD (U-251 cells [1]; U-251, 4 µM): 85.40%; Cells in G0/G1 phase, mean ± SD (U-251 cells [1]; U-251, 6 μM): 1.52%; Cells in G2/M phase, mean ± SD (U-251 cells [1]; U-251, 6 μM): 90.68%; Cells in S phase, mean ± SD (U-251 cells [1]; U-251, 6 μM): 1.52%; Decrease in the IDH1 mRNA level (K562 cells [3]; K562, 0.5 μM): ~2.4 fold; p62 mRNA level (K562 cells [3]; K562, 0.5 μM): about three-fold; p62 mRNA expression (U-251 cells [4]; U-251, 4 µM): almost four-fold increase; Cleavage product of caspase-9 (Western blot) (U-251 cells [5]; U-251, 4 µM): approximately three-fold increase |
| COc1ccccc1/C=C/c1nc(OS(=O)(=O)c2ccc(C)cc2)c2ccccc2n1 [BS4, 2-((E)-2-(2-methoxyphenyl)ethenyl)quinazolin-4-yl 4-methylbenzenesulfonate] | 26.51% | ~1.5 fold | more than two-fold increase |  |  |  |  |  |  |  |  |  |  |  |  |  | significant decrease | statistically significant increase | Increase in the fraction of cells in the G2/M phase compared to the control (U-251 cells [1]; U-251, 4 µM): ~23.1%; Increase in the fraction of cells in the G2/M phase compared to the control (U-251 cells [1]; U-251, 6 μM): about 40.92%; LC3 transcript levels (K562 cells [3]; K562, 0.35 µM): decreased; Decrease in the IDH1 mRNA level (K562 cells [3]; K562, 0.5 µM and 0.35 µM): about a two-fold decrease; GADD45α mRNA expression (K562 cells [3]; K562, 0.5 μM): almost two-fold decrease; p62 mRNA expression (U-251 cells [4]; U-251, 6 μM): almost four-fold increase; Cleavage product of caspase-9 (Western blot) (U-251 cells [5]; U-251, 6 μM): approximately three-fold increase; p21 protein expression (Western blot) (U-251 cells [5]; U-251, 24 h): more than two-fold increase |
| COc1ccccc1/C=C/c1nc(OS(=O)(=O)c2cc3c(cc2Br)OCO3)c2ccccc2n1 [BS2, 2-((E)-2-(2-methoxyphenyl)ethenyl)quinazolin-4-yl 6-bromo-1,3-benzodioxole-5-sulfonate] |  |  |  | 0.763 | 1.071 | 0.701 | 1.805 | 0.587 | 0.953 | 1.007 | 2.272 | 0.465 | 2.205 | 1.698 | 2.625 | 2.893 |  |  | PARP/Reference 89 kDa, densitometric intensity ratio (U-251 cells [5]; U-251, 6µM): 0.698; caspase-9/Reference 37-35 kDa, densitometric intensity ratio (U-251 cells [5]; U-251, 6µM): 1.188; BID/Reference 22 kDa, densitometric intensity ratio (U-251 cells [5]; U-251, 6µM): 1.227; Cathepsin b/Reference 44 kDa, densitometric intensity ratio (U-251 cells [5]; U-251, 6µM): 2.641; HIF-1α/Reference 120 kDa, densitometric intensity ratio (U-251 cells [5]; U-251, 6µM): 0.661; PARP/Reference 116 kDa, densitometric intensity ratio (U-251 cells [5]; U-251, 6µM): 0.940; caspase-9/Reference 47 kDa, densitometric intensity ratio (U-251 cells [5]; U-251, 6µM): 1.035; cdc2/Reference 34 kDa, densitometric intensity ratio (U-251 cells [5]; U-251, 6µM): 2.282; cyclin E1/Reference 48 kDa, densitometric intensity ratio (U-251 cells [5]; U-251, 6µM): 0.392; p21/Reference 21 kDa, densitometric intensity ratio (U-251 cells [5]; U-251, 6µM): 2.783; p53/Reference 53 kDa, densitometric intensity ratio (U-251 cells [5]; U-251, 6µM): 1.448; Cathepsin b/Reference 27 kDa, densitometric intensity ratio (U-251 cells [5]; U-251, 6µM): 3.172; Cathepsin b/Reference 22 kDa, densitometric intensity ratio (U-251 cells [5]; U-251, 6µM): 3.717 |
